In data set [1] the test system is HIV-IIIb. The data set is described as follows: Test A: Antiviral Assay in MT4 Cells. Type of data set: cell-based, HIV-1. To be noted: Human immunodeficiency virus 1, MT4, 120 h, inhibition of virus-induced cell killing, MT-4 cells, HIV-IIIb, 5 days, values normalized to 100%; for inhibition at 0.01 µM: from dose response curve at 0.01 μM (10 nM), read-out: % inhibition at 0.01 μM; for inhibition at 0.2 µM: from dose response curve at 0.20 μM (200 nM), read-out: % inhibition at 0.20 μM. The protocol: (§1) MT-4 cells were next mixed with HIV-IIIb at a multiplicity of infection (m.o.i.) of 0.003 for 1 hour, after which time 35 μL of virus/cell mixture (2000 cells) was immediately added to each well containing 40 μL of diluted compound. The plates were then incubated at 37° C. for 5 days. After 5 days of incubation, 25 μl of 2× concentrated CellTiter-Glo Reagent (catalog #G7571, Promega Biosciences, Inc., Madison, Wis.) was added to each well containing MT-4 cells. Cell lysis was carried out by incubating at room temperature for 10 min and then chemiluminescence was read.

Data set [2] can be described thus: Test B: Cytotoxicity Assay (same protocol as Test A, uninfected cells). Type of data set: cell-based. To be noted: human, uninfected MT-4 cells, CellTiter-Glo. Here is the method: as §1, with “read. […] Compound cytotoxicity and the corresponding CC50 values was determined using the same protocol as described in the antiviral assay (Test A) except that uninfected cells were used.” for “read.”

Some results are limits rather than exact numbers.

For `CC(C)(C#Cc1ccc(-c2ccc(Cl)c3c(NS(=O)(=O)CC4CC4)nn(CC(F)F)c23)c([C@H](Cc2cc(F)cc(F)c2)NC(=O)Cn2nc(C(F)F)c3c2C(F)(F)[C@@H]2C[C@H]32)n1)S(=O)(=O)C1CC1` [Example 26], in data set [1], the inhibition at 0.01 µM amounted to 100% and the inhibition at 0.2 µM came out at 100%. The same compound displayed a CC50 at 5 days in data set [2] of over 57.1 µM.

With `CC(C)(C#Cc1ccc(-c2ccc(Cl)c3c(NS(=O)(=O)CC4CC4)nn(CC(F)F)c23)c([C@H](Cc2cc(F)cc(F)c2)NC(=O)Cn2nc(C(F)(F)F)c3c2C(F)(F)[C@@H]2C[C@H]32)n1)S(=O)(=O)C1CC1` [Example 27], in data set [1], the inhibition at 0.01 µM was 100% and the inhibition at 0.2 µM worked out at 100%. Further, the CC50 at 5 days in data set [2] is over 57.1 µM.

For `Cn1nc(Nc2nnc(C3(O)CC3)o2)c2c(Cl)ccc(-c3ccc(C#CC(C)(C)S(=O)(=O)C4CC4)nc3[C@H](Cc3cc(F)cc(F)c3)NC(=O)Cn3nc(C(F)F)c4c3C(F)(F)[C@@H]3C[C@H]43)c21` [Example 28], in data set [1], the inhibition at 0.01 µM stood at 99% and the inhibition at 0.2 µM stood at 99%. The compound also had a CC50 at 5 days in data set [2] of 16.5 µM.

In the case of `CC1(S(=O)(=O)Nc2nn(CC(F)(F)F)c3c(-c4ccc(C#CC(C)(C)S(=O)(=O)C5CC5)nc4[C@H](Cc4cc(F)cc(F)c4)NC(=O)Cn4nc(C(F)(F)F)c5c4C(F)(F)[C@@H]4C[C@H]54)ccc(Cl)c23)CC1` [Example 29], in data set [1], the inhibition at 0.01 µM was found to be 100% and the inhibition at 0.2 µM was 100%. The compound also registered a CC50 at 5 days in data set [2] of over 57.1 µM.

For `Cn1nc(Nc2nnc(C(F)F)o2)c2c(Cl)ccc(-c3ccc(C#CC(C)(C)S(=O)(=O)C4CC4)nc3[C@H](Cc3cc(F)cc(F)c3)NC(=O)Cn3nc(C(F)F)c4c3C(F)(F)[C@@H]3C[C@H]43)c21` [Example 30], in data set [1], the inhibition at 0.01 µM turned out to be 99% and the inhibition at 0.2 µM amounted to 99%. Moreover, in data set [2], the CC50 at 5 days is over 57.1 µM.

Consider `CC1(S(=O)(=O)Nc2nn(CC(F)(F)F)c3c(-c4ccc(C#CC(C)(C)S(=O)(=O)C5CC5)nc4[C@H](Cc4cc(F)cc(F)c4)NC(=O)Cn4nc(C(F)F)c5c4C(F)(F)CCC5(F)F)ccc(Cl)c23)CC1` [Example 31], for which, in data set [1], the inhibition at 0.01 µM is 97% and the inhibition at 0.2 µM amounted to 98%. Moreover, the CC50 at 5 days in data set [2] was over 57.1 µM.

As to `CC1(S(=O)(=O)Nc2nn(CC(F)(F)F)c3c(-c4ccc(C#CC(C)(C)S(=O)(=O)C5(C)CC5)nc4[C@H](Cc4cc(F)cc(F)c4)NC(=O)Cn4nc(C(F)(F)F)c5c4C(F)(F)[C@@H]4C[C@H]54)ccc(Cl)c23)CC1` [Example 32], in data set [1], the inhibition at 0.01 µM amounted to 100% and the inhibition at 0.2 µM stood at 100%. In data set [2], this compound registered a CC50 at 5 days of over 57.1 µM.

In the case of `CC(C)(C#Cc1ccc(-c2ccc(Cl)c3c(NS(=O)(=O)C4CC4)nn(CC(F)F)c23)c([C@H](Cc2cc(F)cc(F)c2)NC(=O)Cn2nc(C(F)F)c3c2C(F)(F)CCC3(F)F)n1)S(=O)(=O)C1CC1` [Example 33], in data set [1], the inhibition at 0.01 µM amounted to 97% and the inhibition at 0.2 µM was determined as 97%. Further, in data set [2], the CC50 at 5 days was over 57.1 µM.

As for `Cn1nc(NS(=O)(=O)C2(C)CC2)c2c(Cl)ccc(-c3ccc(C#CC(C)(C)S(=O)(=O)C4CC4)nc3[C@H](Cc3cc(F)cc(F)c3)NC(=O)Cn3nc(C(F)F)c4c3C(F)(F)CCC4(F)F)c21` [Example 34], in data set [1], the inhibition at 0.01 µM amounted to 89% and the inhibition at 0.2 µM was found to be 90%. The compound also returned a CC50 at 5 days in data set [2] of over 57.1 µM.

Turning to `CC(C)(C#Cc1ccc(-c2ccc(Cl)c3c(NS(=O)(=O)C4CC4)nn(CC(F)(F)F)c23)c([C@H](Cc2cc(F)cc(F)c2)NC(=O)Cn2nc(C(F)F)c3c2C(F)(F)[C@@H]2C[C@H]32)n1)S(=O)(=O)C1CC1` [Example 35], in data set [1], the inhibition at 0.01 µM amounted to 97% and the inhibition at 0.2 µM worked out at 97%. For the same compound, the CC50 at 5 days in data set [2] was over 57.1 µM.

`CC(C)(C#Cc1ccc(-c2ccc(Cl)c3c(NS(=O)(=O)C4CC4)nn(CC(F)(F)F)c23)c([C@H](Cc2cc(F)cc(F)c2)NC(=O)Cn2nc(C(F)(F)F)c3c2C(F)(F)[C@@H]2C[C@H]32)n1)S(=O)(=O)C1CC1` [Example 36]: in data set [1], the inhibition at 0.01 µM was 93% and the inhibition at 0.2 µM stood at 93%. Further, the CC50 at 5 days in data set [2] was over 57.1 µM.

The values above are taken from patent US11753399B2, “Therapeutic compounds” (Gilead Sciences, Inc., priority 2018, dated 2023).
